What was measured:
[1] = system: female diabetic db/db mice; test: serum glucose, triglyceride and thyroxine levels in db/db mice; format: in vivo
Protocol: An assay described below tests the effect of compounds of the invention on serum glucose, tryglyceride and thyroxine levels in female 9-10 weeks old db/db mice.
Blood samples (70 μl) were taken by orbital bleeding at 11:00 AM on day 0 (pre-treatment), day 3, and day 6. On day 7, a blood sample (700 μl) was taken at 11:00 AM and the animals were sacrificed. Glucose, triglyceride and thyroxine (T4) levels were determined on a Boehringer Manheim Hatachi Clinical Chemistry Analyzer using standard protocols provided by the manufacturer and reagents that were supplied in commercially available kits (glucose and T4; Boehringer Manheim; triglycerides: Roche Diagnostics). Seven animals were treated in each group.

RXRα = target: T1, RXRα (Homo sapiens, UniProt P19793); test: holoreceptor transactivation assay, RXRα; format: cell-based; conditions: efficacy as a percentage compared to the standard compound
T1 construct: expressed in transfected cells
T1 sequence (P19793 1-462): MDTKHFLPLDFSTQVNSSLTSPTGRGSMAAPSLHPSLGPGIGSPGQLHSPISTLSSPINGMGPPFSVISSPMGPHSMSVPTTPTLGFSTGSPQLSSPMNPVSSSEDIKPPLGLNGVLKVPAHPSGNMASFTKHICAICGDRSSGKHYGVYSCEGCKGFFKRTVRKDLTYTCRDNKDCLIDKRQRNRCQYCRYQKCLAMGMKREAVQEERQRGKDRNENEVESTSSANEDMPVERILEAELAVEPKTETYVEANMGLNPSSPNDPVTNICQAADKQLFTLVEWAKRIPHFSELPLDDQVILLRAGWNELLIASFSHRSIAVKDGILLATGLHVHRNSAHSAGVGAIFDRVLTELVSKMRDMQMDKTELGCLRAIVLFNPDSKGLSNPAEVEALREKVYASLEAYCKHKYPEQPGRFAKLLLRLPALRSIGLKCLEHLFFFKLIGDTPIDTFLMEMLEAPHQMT
Text: (§1) Particularly, the transactivation data pertaining to activation of the RAR receptors were obtained in the chimeric assay, and the transactivation data pertaining to the activation of RXR receptors were obtained in the holoreceptor assay.

RXRβ = target: T2, RXRβ (Homo sapiens, UniProt P28702); test: holoreceptor transactivation assay, RXRβ; format: cell-based
T2 construct: expressed in transfected cells
T2 sequence (P28702 1-533): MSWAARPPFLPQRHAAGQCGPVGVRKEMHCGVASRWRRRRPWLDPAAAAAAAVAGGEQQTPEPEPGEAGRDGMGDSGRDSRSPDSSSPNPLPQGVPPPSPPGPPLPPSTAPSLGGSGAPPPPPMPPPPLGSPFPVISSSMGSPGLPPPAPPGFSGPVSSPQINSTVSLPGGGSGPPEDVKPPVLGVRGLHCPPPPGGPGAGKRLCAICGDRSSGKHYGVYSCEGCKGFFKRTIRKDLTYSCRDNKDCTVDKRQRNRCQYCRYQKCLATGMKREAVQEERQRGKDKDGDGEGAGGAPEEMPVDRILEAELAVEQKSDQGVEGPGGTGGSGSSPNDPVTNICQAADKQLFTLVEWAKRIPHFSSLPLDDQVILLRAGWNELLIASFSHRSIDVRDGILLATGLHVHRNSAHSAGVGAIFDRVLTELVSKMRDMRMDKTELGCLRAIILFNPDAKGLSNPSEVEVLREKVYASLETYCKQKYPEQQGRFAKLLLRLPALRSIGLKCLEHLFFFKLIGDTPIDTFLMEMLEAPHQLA
Text: as §1

[2] = female db/db mice, day 0 (pre-treatment), groups: standard compound 5 mg/kg, Compound 27 50 mg/kg
[3] = female db/db mice, oral gavage daily, standard compound 5 mg/kg, Compound 27 50 mg/kg

T4 Day 7 ([1]; female db/db mice, oral gavage daily for seven days, standard compound 5 mg/kg, Compound 27 50 mg/kg): 2.6 ± 0.6 µg/dL
RXR Trans. efficacy α (RXRα): 100%
RXR Trans. efficacy β (RXRβ; efficacy as a percentage compared to the standard compound): 100%
SMILES: CC(/C=C/[C@@H]1C[C@]1(C)c1ccc2c(c1)C(C)(C)CCC2(C)C)=C\C(=O)O [Standard compound, (2E,4E,1'S,2'S)-3-methyl-5-[2′-methyl-2′-(5,5,8,8-tetramethyl-5,6,7,8-tetrahydro-naphthalen-2-yl)-cyclopropyl]-penta-2,4-dienoic acid]
effect on serum thyroxine levels ([1]; diabetic mammals (db/db mice), in words): undesirable side effect of reducing serum thyroxine levels
Glucose Day 0 [1, 2]: 356 mg/dL
Triglycerides Day 0 [1, 2]: 152 mg/dL
Glucose Day 3, 3 h [1, 3]: 249 mg/dL
Glucose Day 6, 3 h [1, 3]: 239 mg/dL
Triglycerides Day 3, 3 h [1, 3]: 137 mg/dL
efficacy in activating RXRβ compared with RXRα and RXRγ (RXRβ; transactivation, comparison of subtypes): approximately equally efficacious in activating the RXRα, RXRβ and RXRγ subtypes
